We go through 16 molecules from patent US8232273B2, “Heterocyclic compounds and methods of use” (Genentech, Inc., priority 2008, dated 2012).

For one test, the target named is T1, Bcl-2 (GST-Bcl-2) (Homo sapiens, UniProt P10415).
T1 construct: made in house
In words: TR-FRET binding assay, competition with F-Bak for the Bcl-2 binding site. The settings on record: Bcl-2, for comparison (selectivity). The method, then: For each assay plate, a probe/antibody and protein/antibody/probe mixture were included as a negative and a positive control, respectively. Fluorescence was measured on the Envision (Perkin Elmer) using a 340/35 nm excitation filter and 520/525 (F-Bak) and 495/510 nm (Tb-labeled anti-his antibody) emission filters. Dissociation constants (Ki) were determined using Wang's equation (see, Wang, Z. X. An exact mathematical expression for describing competitive binding of two different ligands to a protein molecule. FEBS Lett. 1995 360:111-114). The TR-FRET assay can be performed in the presence of varying concentrations of human serum (HS) or fetal bovine serum (FBS). For comparison, the measurement of the competition of compounds of the invention for other Bcl-2 family protein binding sites (e.g., Bcl-2, Mcl-1) using the TR-FRET binding assay was accomplish by substituting GST-Bcl-xL in the TR-FRET assay with other GST-labeled protein, e.g., GST-Bcl-2, GST-Mcl-1, prepared in-house.

In test [1] the target is T2, Bcl-xL (GST-Bcl-xL) (Homo sapiens, UniProt Q07817). As to the kind of experiment: TR-FRET binding assay, competition with F-Bak for the Bcl-xL binding site.
Test [2] concerns the target T2, Bcl-xL (GST-Bcl-xL). In words: AlphaScreen Bcl-xL binding assay, competition with biotinylated Bim peptide. Set-up: made in house. As to conditions: values listed in the order of Table 1; read-out: Alphascreen results (IC50) against the Bcl-xL protein. The method in brief: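 Acceptor beads with GST-Bcl-xL were combined with donor beads carrying biotinylated Bim peptide after each bead mix was preincubated 30 min at room temperature. Compounds in DMSO, 2-fold serially diluted, were incubated 30 min at room temperature before donor addition, with duplicate plates. Percent inhibition was taken against no-protein and DMSO controls, and IC50 was calculated.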

The mark [3] stands for this setting: values listed in the order of Table 1, read-out: TR-FRET assay results (Ki), Bcl-xL.

Each structure is given as a SMILES string. pIC50, pKi: −log10 of the molar value. Read-outs that look alike come from different tables or passages of the source.

T2 sequence (Q07817 whole entry, species assumed): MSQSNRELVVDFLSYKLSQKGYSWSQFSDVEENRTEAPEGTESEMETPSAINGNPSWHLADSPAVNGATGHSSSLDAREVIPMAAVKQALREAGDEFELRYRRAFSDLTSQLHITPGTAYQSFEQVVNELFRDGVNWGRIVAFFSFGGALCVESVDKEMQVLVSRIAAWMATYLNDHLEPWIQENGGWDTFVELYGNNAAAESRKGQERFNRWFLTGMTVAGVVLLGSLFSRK
T1 sequence (P10415 whole entry, species assumed): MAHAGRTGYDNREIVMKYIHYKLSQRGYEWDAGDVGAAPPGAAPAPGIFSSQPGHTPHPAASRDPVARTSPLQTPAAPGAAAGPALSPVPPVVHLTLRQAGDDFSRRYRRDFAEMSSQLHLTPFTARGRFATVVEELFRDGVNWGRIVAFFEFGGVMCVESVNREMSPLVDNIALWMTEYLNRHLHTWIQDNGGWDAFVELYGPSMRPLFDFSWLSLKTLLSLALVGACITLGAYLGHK

Broadly, the pKi is the negative decadic logarithm of the Ki, by convention in mol/L. With `CC(C)n1cnc2c(-c3ccc(OCCCc4sc(N5CCc6cccc(C(=O)Nc7nc8ccccc8s7)c6C5)nc4C(=O)O)cc3)ncnc21` [Example 52, 2-(8-(benzo[d]thiazol-2-ylcarbamoyl)-3,4-dihydroisoquinolin-2(1H)-yl)-5-(3-(4-(9-isopropyl-9H-purin-6-yl)phenoxy)propyl)thiazole-4-carboxylic acid], the pKi was 6.89 at Bcl-2 (GST-Bcl-2) and 10.30 at Bcl-xL (GST-Bcl-xL) [1] (setting [3]).

In general, pIC50 refers to the negative decadic logarithm of the IC50, by convention in mol/L. For the molecule `O=C(Nc1nc2ccccc2s1)c1cccc2c1CN(c1nc(C(=O)O)c(CCNS(=O)(=O)c3cccc([N+](=O)[O-])c3)s1)CC2` [Example 70, 2-[8-(Benzothiazol-2-ylcarbamoyl)-3,4-dihydro-1H-isoquinolin-2-yl]-5-[2-(3-nitro-benzenesulfonylamino)-ethyl]thiazole-4-carboxylic acid], the pIC50 at Bcl-xL (GST-Bcl-xL) [2] is 6.59. In addition, the pKi on Bcl-2 (GST-Bcl-2) is 6.30; on Bcl-xL (GST-Bcl-xL) [1] (setting [3]), 7.40.

Take `O=C(Nc1nc2ccccc2s1)c1cccc2c1CN(c1nc(C(=O)O)c(CCOc3ccccc3)s1)CC2` [Example 76, 2-(8-(benzo[d]thiazol-2-ylcarbamoyl)-3,4-dihydroisoquinolin-2(1H)-yl)-5-(2-phenoxyethyl)thiazole-4-carboxylic acid]: the pKi on Bcl-2 (GST-Bcl-2) is 6.46.

In the case of `CN1CCN(C(=O)c2ccc(OCCCc3ccc(N4CCc5cccc(C(=O)Nc6nc7ccccc7s6)c5C4)nc3C(=O)O)cc2)CC1` [Example 98, 6-(8-(benzo[d]thiazol-2-ylcarbamoyl)-3,4-dihydroisoquinolin-2(1H)-yl)-3-(3-(4-(4-methylpiperazine-1-carbonyl)phenoxy)propyl)picolinic acid], the pIC50 at Bcl-xL (GST-Bcl-xL) [2] is 6.85. Further, the pKi at Bcl-xL (GST-Bcl-xL) [1] (setting [3]) is 8.00.

Regarding `CN(C)CCc1ccc(OCCCc2ccc(N3CCc4cccc(C(=O)Nc5nc6ccccc6s5)c4C3)nc2C(=O)O)cc1` [Example 102, 6-(8-(benzo[d]thiazol-2-ylcarbamoyl)-3,4-dihydroisoquinolin-2(1H)-yl)-3-(3-(4-(2-(dimethylamino)ethyl)phenoxy)propyl)picolinic acid], the pIC50 at Bcl-xL (GST-Bcl-xL) [2] is 7.70. For the same molecule, the pKi at Bcl-xL (GST-Bcl-xL) [1] (setting [3]) was 8.70.

For the molecule `CN(C)CCCc1ccc(OCCCc2sc(N3CCc4cccc(C(=O)Nc5nc6ccccc6s5)c4C3)nc2C(=O)O)c(F)c1` [Example 103, 2-(8-(benzo[d]thiazol-2-ylcarbamoyl)-3,4-dihydroisoquinolin-2(1H)-yl)-5-(3-(4-(3-(dimethylamino)propyl)-2-fluorophenoxy)propyl)thiazole-4-carboxylic acid], the pIC50 on Bcl-xL (GST-Bcl-xL) [2] is 9.40. The molecule also showed a pKi at Bcl-xL (GST-Bcl-xL) [1] (with 1% human serum (HS)) of 11.22.

For the molecule `CN1CCC(Nc2ccc(OCCCc3ccc(N4CCc5cccc(C(=O)Nc6nc7ccccc7s6)c5C4)nc3C(=O)O)cc2)CC1` [Example 104, 6-(8-(Benzo[d]thiazol-2-ylcarbamoyl)-3,4-dihydroisoquinolin-2(1H)-yl)-3-(3-(4-(1-methylpiperidin-4-ylamino)phenoxy)propyl)picolinic acid], the pIC50 at Bcl-xL (GST-Bcl-xL) [2] is 8.02. For the same molecule, the pKi at Bcl-xL (GST-Bcl-xL) [1] (setting [3]) was 9.00.

For the molecule `CN1CCN(c2cccc(OCCCc3ccc(N4CCc5cccc(C(=O)Nc6nc7ccccc7s6)c5C4)nc3C(=O)O)c2)CC1` [Example 105, 6-(8-(benzo[d]thiazol-2-ylcarbamoyl)-3,4-dihydroisoquinolin-2(1H)-yl)-3-(3-(3-(4-methylpiperazin-1-yl)phenoxy)propyl)picolinic acid], on Bcl-xL (GST-Bcl-xL) [2], the pIC50 was 8.66. Besides, on Bcl-xL (GST-Bcl-xL) [1] (setting [3]), the pKi was 9.52.

Turning to `CN1CCN(c2cc(F)c(OCCCc3sc(N4CCc5cccc(C(=O)Nc6nc7ccccc7s6)c5C4)nc3C(=O)O)cc2F)CC1` [Example 108, 2-(8-(benzo[d]thiazol-2-ylcarbamoyl)-3,4-dihydroisoquinolin-2(1H)-yl)-5-(3-(2,5-difluoro-4-(4-methylpiperazin-1-yl)phenoxy)propyl)thiazole-4-carboxylic acid], at Bcl-xL (GST-Bcl-xL) [2], the pIC50 is 9.40. In addition, the pKi on Bcl-xL (GST-Bcl-xL) [1] (setting [3]) is 10.70.

On to `O=C(Nc1nc2ccccc2s1)c1cccc2c1CN(c1ccc(CCCOc3ccnc(Cl)c3)c(C(=O)O)n1)CC2` [Example 109], for which the pIC50 at Bcl-xL (GST-Bcl-xL) [2] was 7.97. Besides, the pKi on Bcl-xL (GST-Bcl-xL) [1] (setting [3]) was 9.22.

For `CN(C)CCOc1cnc(-c2ccc(OCCCc3ccc(N4CCc5cccc(C(=O)Nc6nc7ccccc7s6)c5C4)nc3C(=O)O)cc2)nc1` [Example 112, 6-(8-(benzo[d]thiazol-2-ylcarbamoyl)-3,4-dihydroisoquinolin-2(1H)-yl)-3-(3-(4-(5-(2-(dimethylamino)ethoxy)pyrimidin-2-yl)phenoxy)propyl)picolinic acid], the pIC50 on Bcl-xL (GST-Bcl-xL) [2] is 9.35. For the same molecule, the pKi on Bcl-xL (GST-Bcl-xL) [1] (setting [3]) is 9.70.

On to `CN(C)CCOc1cccc(OCCCc2ccc(N3CCc4cccc(C(=O)Nc5nc6ccccc6s5)c4C3)nc2C(=O)O)c1` [Example 113, 6-(8-(benzo[d]thiazol-2-ylcarbamoyl)-3,4-dihydroisoquinolin-2(1H)-yl)-3-(3-(3-(2-(dimethylamino)ethoxy)phenoxy)propyl)picolinic acid], for which the pIC50 on Bcl-xL (GST-Bcl-xL) [2] is 9.05. The pKi on Bcl-xL (GST-Bcl-xL) [1] (setting [3]) was 9.70.

Consider `O=C(Nc1nc2ccccc2s1)c1cccc2c1CN(c1nc(C(=O)O)c(CCCOc3ccc(OCCN4CCCC4)cc3)s1)CC2` [Example 114, 2-(8-(benzo[d]thiazol-2-ylcarbamoyl)-3,4-dihydroisoquinolin-2(1H)-yl)-5-(3-(4-(2-(pyrrolidin-1-yl)ethoxy)phenoxy)propyl)thiazole-4-carboxylic acid], for which the pIC50 on Bcl-xL (GST-Bcl-xL) [2] is 9.85. On Bcl-xL (GST-Bcl-xL) [1] (setting [3]), the pKi was 10.40.

As to `CN(C)CC#Cc1ccc(OCCCc2sc(N3CCc4cccc(C(=O)Nc5nc6ccccc6s5)c4C3)nc2C(=O)O)c(F)c1` [Example 116, 2-(8-(benzo[d]thiazol-2-ylcarbamoyl)-3,4-dihydroisoquinolin-2(1H)-yl)-5-(3-(4-(3-(dimethylamino)prop-1-ynyl)-2-fluorophenoxy)propyl)thiazole-4-carboxylic acid], the pIC50 at Bcl-xL (GST-Bcl-xL) [2] is 9.70. In addition, the pKi on Bcl-xL (GST-Bcl-xL) [1] (setting [3]) was 11.40.

Regarding `CN(C)CC#Cc1ccc(OCCCc2sc(N3CCc4cccc(C(=O)Nc5nc6ccccc6s5)c4C3)nc2C(=O)O)cc1F` [Example 117, 2-(8-(benzo[d]thiazol-2-ylcarbamoyl)-3,4-dihydroisoquinolin-2(1H)-yl)-5-(3-(4-(3-(dimethylamino)prop-1-ynyl)-3-fluorophenoxy)propyl)thiazole-4-carboxylic acid], on Bcl-xL (GST-Bcl-xL) [2], the pIC50 was 7.77. Further, the pKi on Bcl-xL (GST-Bcl-xL) [1] (setting [3]) is 8.52.

Consider `CN(C)CC#Cc1cc(F)c(OCCCc2sc(N3CCc4cccc(C(=O)Nc5nc6ccccc6s5)c4C3)nc2C(=O)O)cc1F` [Example 118, 2-(8-(benzo[d]thiazol-2-ylcarbamoyl)-3,4-dihydroisoquinolin-2(1H)-yl)-5-(3-(4-(3-(dimethylamino)prop-1-ynyl)-2,5-difluorophenoxy)propyl)thiazole-4-carboxylic acid], for which the pIC50 at Bcl-xL (GST-Bcl-xL) [2] was 9.52. In addition, the pKi on Bcl-xL (GST-Bcl-xL) [1] (setting [3]) is 11.00.
